From patent US20260083126A1, “ANTIMICROBIAL COMPOSITIONS” (AHV International B.V., priority 2022, published 2026)
Values after ≈ are worked out from the molar mass of the structure shown. Values joined by “and” are separate entries in the source; they are usually repeats but may differ in a detail not shown here. Identical values can stand only once. Like-named read-outs stand apart in the source and are kept apart here.

What was measured:
[1] = system: Staphylococcus epidermidis ATCC 35984; test: MIC assay (growth inhibition of planktonic microorganisms); format: cell-based; details: 24 h at 37° C., MHB-II; for S. epidermidis MIC50 / MIC50: reduction of final OD600 by 50%; for S. epidermidis MIC90 / MIC90: reduction of final OD600 by 90%; for MIC50 / MIC90: Staphylococcus epidermidis, ATCC35984; for MIC50: read-out: S. epidermidis MIC50; for MIC90: read-out: S. epidermidis MIC90
Description: (§1) The exact weighed amount was noted and the volume of solvent to reach a 80 mM dilution calculated. Half of the volume was added first, by adding Tween 80 and let stand for 5 minutes. In a second step, the other half of the volume DMSO was added and resuspended to help the dilution process. The closed tube was inverted 5-10 times and then vortexed very thoroughly for at least 30 seconds. If after this procedure crystals were still visible, the tube was placed in a shaker at 37° C. at 150 rpm for at least 30 minutes (it is indicated if the dissolution period was longer than 2 h). […] In case of Bis(4-Chlorophenyl) thiosulfonate, a lower concentrated stock solution of 2 mM needed to be prepared. For that, the required amount of compound was weighed in and 2% v/v Tween80 and 2% v/v DMSO of the end volume of the stock solution was added to the substance. This mix was heated in a water bath set to 40° C. and occasionally shaken. When the whole amount of the substance reached dissolution, the volume was filled up with growth medium until the end volume. This 2 mM stock solution of Bis(4-Chlorophenyl) thiosulfonate was used in the MIC plate and diluted two-fold, resulting in a testing range of Bis(4-Chlorophenyl) thiosulfonate from 1 mM to 0.002 mM.
(§2) The microorganisms as indicated in Table 4 were used to inoculate a tryptic soy agar (TSA) plate and incubated overnight at 37° C. After incubation 3-5 well-isolated colonies with the same morphology were selected from the TSA plate and resuspended in 2 mL 0.9% saline solution with 3-6 glass beads and vortexed. The optical density at 600 nm (OD600) of the bacterial suspension was measured with a spectrophotometer (Evolution™ 201/220 UV-Visible Spectrophotometer, Thermo Fisher Scientific) and diluted to an OD600 of 0.0008, which resembles 10^6 CFU/mL.
(§3) The MIC assay was performed in a flat-bottom 96-microtiter plate. 50 μL of MHB-II was added into columns 2-11, and 100 μL to column 12 for sterility control. 100 μL of the 8 mM test compound solution (method 1) was added to column 1. A two-fold dilution series of the solution in MHB-II was achieved by resuspending 50 μL of the 8 mM solution from column 1 to column 2. This step was repeated until column 10. The respective concentration of Tween 80 and DMSO in column 1 was 2.5%, which is two-fold diluted throughout the plate. 50 μL of the bacterial suspension was added to column 1-11. The microtiter plates were sealed with adhesive polyethylene film for sealing microplates (Diversified Biotech) and incubated for 24 h at 37° C. After incubation the OD was measured at 600 nm with the Varioskan (Thermo Fisher Scientific). The minimal concentration which causes reduction of final OD600 of the bacterial culture by 50% (MIC50) and by 90% (MIC90) was calculated after normalization of the obtained OD values to the growth control in column 11. This assay was repeated three times in three independent experiments.

[2] = system: Pseudomonas aeruginosa ATCC 27853; test: as above; format: cell-based; details: for P. aeruginosa MIC50 / MIC50: reduction of final OD600 by 50%; for MIC50 / MIC90: Pseudomonas aeruginosa; for MIC50: ATCC27853, 24 h, read-out: P. aeruginosa MIC50; for MIC90: ATCC27853
Description: as §1, §2, §3
Hereafter, the stock solutions of the compounds were used in three repetitions in a minimal inhibitory concentration (MIC) assay at a 2-fold dilution range with various bacteria from the gram-positive and gram-negative group and a yeast, Candida albicans. The concentrations that show only less than 10% growth after 24 h were considered the MIC90-values, whereas the concentrations that show 50% growth after 24 h when compared to the bacterial growth control were considered the MIC50-values. Escherichia coli and Staphylococcus aureus were used as representatives for a gram-negative bacteria and gram-positive bacteria, respectively. Furthermore, the yeast C. albicans was also tested.
In an Eppendorf tube between 10-20 mg of the test compound was weighed. Hereafter, the required amount of Tween 80 was added, followed by the amount DMSO. After vigorous shaking, the dissolved and transparent dilutions were diluted 10 times with Mueller Hinton Broth (MHB) for the MIC assay. […]

[3] = system: Staphylococcus epidermis ATCC 35984 biofilm; test: MBEC assay (48 h biofilm, CFU log reduction); format: cell-based, Staphylococcus epidermidis; details: 20 h treatment, 0.125-1 mM tested
Description: (§4) For the MBEC assay (method 1.3) the solutions need to be diluted to a final concentration of 2 mM in 0.9% saline solution and then further diluted to 1 mM, 0.5 mM, 0.25 mM and 0.125 mM in saline. Those dilutions were added as treatment to the 96 well plates with the grown biofilm (see method 3) (0.5 mL needed for one strain). The dilution must stay transparent.
(§5) Frozen aliquots of Staphylococcus epidermis ATCC 35984 and Pseudomonas aeruginosa ATCC 27853 were used to inoculate 20 mL of Tryptic Soy Broth (TSB) in a 100 mL Erlenmeyer flask at 37° C. and 150 rpm and incubated overnight (Infors). The OD600 of the overnight culture was measured with a spectrophotometer (Evolution™ 201/220 UV-Visible Spectrophotometer, Thermo Fisher Scientific) and diluted to an ( ) 600 of 0.2, which resembles 10^8 CFU/mL. The cell suspension of OD600=0.2 was seeded into a U-bottom-shaped 96 well plates by pipetting 100 μL per well in column 1-11, column 12 was filled with 100 μL medium as sterility control. The 96 well plates were sealed with adhesive polyethylene film for sealing microplates and incubated for 48 h at 37° C. at static conditions. After the biofilm growth phase, 100 μL of treatment solutions (method 1) were added to the vials resulting in treatment concentrations of 1 mM, 0.5 mM, 0.25 mM and 0.125 mM and with the respective concentration of Tween 80 and DMSO each at 0.63%, 0.32%, 0.16% and 0.08%. The same concentration was applied to four different wells of the same bacterial strain, resulting in four replicates for each concentration and strain. The treatment was incubated for 20 h at 37° C. at static conditions. After the treatment the supernatant was carefully removed and the well with the biofilm washed carefully for one time with 200 μL 0.9% saline solution. 200 μL saline solution was added and the biofilm was resuspended thoroughly. When fully homogenized then 20 μl, was used for the first dilution in 180 μL 0.9% saline solution, which was prepared in a second plate. This dilution was continued until dilution step 10E-5 and 100 μL of the 10E-4 and 10E-5 dilution plated on a TSA plate. The TSA plates were incubated at 37° C. for 24 h. The colonies on the plates were enumerated, the colony forming units per ml, of the dispensed biofilm and averages thereof and the log reduction in comparison with the untreated sample from the same wells plate calculated. Reduction of colony forming units goes hand in hand with the thickness of the biofilm and thus with the number bacteria that are present in the biofilm. Therefore, a significant reduction of colony forming units in the biofilm was defined at the value of log reduction >1 or more. This assay was repeated two times in two independent experiments)

[4] = system: Pseudomonas aeruginosa ATCC 27853 biofilm; test: MBEC assay (48 h biofilm, CFU log reduction); format: cell-based; details: 20 h treatment, 0.125-1 mM tested
Description: as §4, §5

[5] = reduction of final OD600 by 90%, 24 h at 37° C., MHB-II
[6] = reduction of final OD600 by 90%, 24 h at 37° C., MHB-II, read-out: P. aeruginosa MIC90

SMILES | S. epidermidis MIC50 [1] | S. epidermidis MIC90 [1] [µM] | P. aeruginosa MIC90 [2, 5] [µM] | P. aeruginosa MIC50 ([2]; 24 h at 37° C., MHB-II) [µM] | S. epidermidis MBEC mM with log reduction ≥1 [3] [mM] | P. aeruginosa MBEC mM with log reduction ≥1 [4] [mM] | MIC50 [1] [µM] | MIC90 [1] [µM] | MIC50 ([2]; 24 h at 37° C., MHB-II) [µM] | MIC90 [2, 6] [µM] | MIC90 ([2]; Example 2b, FIG. 1, no MIC90 detected in the tested range, read-out: Average MIC90 P. aeruginosa (Pa)) [µM]
O=S(=O)(Sc1ccc(Cl)cc1)c1ccc(Cl)cc1 [Bis (4-chlorophenyl) thiosulfonate, Bis(4-chlorophenyl) thiosulfonate] | 30 µM | 60 | 2000 | 250 | >1 | >1 |  |  |  |  | 
Clc1ccc(SSc2ccc(Cl)cc2)cc1 [Bis (4-chlorophenyl) disulfide, Bis(4-chlorophenyl) disulfide] |  |  |  |  | >1 | >1 | 10 (≈ 2.87 µg/mL) | 30 (≈ 8.62 µg/mL) | 20 (≈ 5.74 µg/mL) | 30 (≈ 8.62 µg/mL) | 
Fc1ccc(SSc2ccc(F)cc2)cc1 [Bis (4-fluorophenyl) disulfide, Bis(4-fluorophenyl) disulfide] |  |  |  | 130 | >1 | >1 | 60 (≈ 15.3 µg/mL) | 60 (≈ 15.3 µg/mL) | 125 (≈ 31.8 µg/mL) | 250 (≈ 63.6 µg/mL) | > 4000
CCCSSCCC [Di-n-propyl disulfide, reference compound] |  |  |  |  | >1 | >4 | > 4000 | > 4000 | > 4000 | > 4000 | 
CC(C)SS(=O)(=O)C(C)C [Di-isopropyl thiosulfonate] | 2000 µM | 2000 | 2000 | 2000 | >1 | >1 |  |  |  |  | 
O=S(=O)(Sc1ccc(F)cc1)c1ccc(F)cc1 [Bis (4-fluorophenyl) thiosulfonate, Bis(4-fluorophenyl) thiosulfonate] | 250 µM | 2000 | 2000 | 2000 | >1 | >1 |  |  |  |  | 

The next lines start with results.

S. epidermidis MIC50 [1] | S. epidermidis MIC90 [1] [µM] | P. aeruginosa MIC90 [2, 5] [µM] | SMILES | P. aeruginosa MIC50 ([2]; 24 h at 37° C., MHB-II) [µM] | S. epidermidis MBEC mM with log reduction ≥1 [3] [mM] | P. aeruginosa MBEC mM with log reduction ≥1 [4] [mM] | MIC50 [1] [µM] | MIC90 [1] [µM] | MIC50 ([2]; 24 h at 37° C., MHB-II) [µM] | MIC90 [2, 6] [µM] | MIC90 ([2]; Example 2b, FIG. 1, no MIC90 detected in the tested range, read-out: Average MIC90 P. aeruginosa (Pa)) [µM]
125 µM and 130 µM | 250 | 4000 | [O-][S+](Sc1ccc(F)cc1)c1ccc(F)cc1 (centres unmarked) [Bis (4-fluorophenyl) thiosulfinate, Bis(4-fluorophenyl) thiosulfinate] | 1000 | >1 | >1 |  |  |  |  | 
250 µM | 250 | 250 | CCCSS(=O)(=O)CCC [Di-n-propyl thiosulfonate, reference compound] | 250 | 0.25 | 1 |  |  |  |  | 
